The source of these data is patent publication US11780845B2 (Relay Therapeutics, Inc., priority 2019, dated 2023).

The subject of one test is SNU-16. The test can be described thus: Cell SNU-16 assay. The class given is cell-based.
In the next test the target is FGFR2 (Homo sapiens (Human), UniProt P21802). The test is described as follows: Biochemical FGFR2 Caliper assay.
Setting [1] is: Homo sapiens, SNU-16, SNU-16 cells.

Sequence of FGFR2 (P21802 22-821): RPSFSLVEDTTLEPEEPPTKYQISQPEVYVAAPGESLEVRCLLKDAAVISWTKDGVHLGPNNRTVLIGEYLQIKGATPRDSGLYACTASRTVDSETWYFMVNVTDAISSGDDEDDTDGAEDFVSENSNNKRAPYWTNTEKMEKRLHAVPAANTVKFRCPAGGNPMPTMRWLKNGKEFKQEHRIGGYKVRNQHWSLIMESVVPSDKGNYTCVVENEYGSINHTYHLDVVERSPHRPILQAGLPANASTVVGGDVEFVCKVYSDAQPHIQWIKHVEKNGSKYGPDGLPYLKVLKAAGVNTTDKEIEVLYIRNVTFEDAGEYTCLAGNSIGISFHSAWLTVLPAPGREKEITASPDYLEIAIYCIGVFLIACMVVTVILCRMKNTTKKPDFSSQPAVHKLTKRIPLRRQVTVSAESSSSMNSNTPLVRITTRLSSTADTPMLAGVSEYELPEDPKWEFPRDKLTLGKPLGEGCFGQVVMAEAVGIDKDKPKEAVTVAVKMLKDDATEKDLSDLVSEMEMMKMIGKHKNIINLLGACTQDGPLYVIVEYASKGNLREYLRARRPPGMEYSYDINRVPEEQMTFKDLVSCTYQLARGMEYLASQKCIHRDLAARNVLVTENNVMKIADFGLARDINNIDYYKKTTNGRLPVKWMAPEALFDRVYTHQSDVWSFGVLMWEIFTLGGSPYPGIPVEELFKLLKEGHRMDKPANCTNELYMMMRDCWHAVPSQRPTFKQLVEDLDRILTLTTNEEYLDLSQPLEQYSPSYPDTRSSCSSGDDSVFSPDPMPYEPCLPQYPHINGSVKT

As for `C=C(C)C(=O)Nc1cc(Cl)c(-c2c(-c3ccc(Oc4nccc(C)n4)cc3)c3c(N)ncnc3n2C)cc1C` [Example 1069], the IC50 with SNU-16 (setting [1]) and against FGFR2 was 250 to 1000 nM in each case.

For the compound `Cc1ccnc(Oc2ccc(-c3c(-c4ccc(NC(=O)/C=C/CN(C)C)cc4)n(C)c4ncnc(N)c34)cc2)n1` [Example 1041], the IC50 in the test on SNU-16 (setting [1]) is at most 100 nM; against FGFR2, 100 to 250 nM.

In the case of `Cc1ccnc(Oc2ccc(-c3c(C4=CCN(C(=O)[C@H]5CO5)C4)n(C)c4ncnc(N)c34)cc2)n1` (single isomer, unassigned) [Example 908], the concentration for half-maximal inhibition (IC50) with SNU-16 (setting [1]) was at most 100 nM; against FGFR2 it was 100 to 250 nM.

Consider `COC(=O)/C=C/CNc1ccc(-c2c(-c3ccc(Oc4nccc(C)n4)c(F)c3)c3c(N)ncnc3n2C)cc1` [Example 1265], for which the IC50 was 100 to 250 nM in the test on SNU-16 (setting [1]) and under 100 nM on FGFR2.

For the compound `C=C(C)C(=O)Nc1ccc(-c2[nH]c3ncnc(N)c3c2-c2ccc(Oc3cccc(C)n3)cc2)nc1` [Example 857], the 50% inhibitory concentration (IC50) with SNU-16 (setting [1]) and against FGFR2 was 1000 to 100000 nM each time.

Take `C=C(C)C(=O)Nc1ccc(-c2c(-c3ccc(-c4ccnn4C)nc3)c3c(N)ncnc3n2C)cc1` [Example 1155]: the 50% inhibitory concentration (IC50) in the test with SNU-16 (setting [1]) is at most 100 nM; on FGFR2, under 100 nM.

Turning to `C=C(C)C(=O)Nc1ccc(-c2c(-c3ccc4cc[nH]c4c3)c3c(N)ncnc3n2C)cc1` [Example 1297], the half-inhibitory concentration (IC50) with SNU-16 (setting [1]) and at FGFR2 was 250 to 1000 nM in each case.

`C=C(C)C(=O)Nc1ccc(-c2c(C3=CC[C@@H](C(=O)N4CCCC4)C[C@H]3C)c3c(N)ncnc3n2C)cc1` (single isomer, unassigned) [Example 936]: the results for the IC50 in the test with SNU-16 (setting [1]) and against FGFR2 were 250 to 1000 nM and 1000 to 100000 nM, respectively.

Turning to `C#Cc1ccc2c(cc(-c3c(-c4ccc(Oc5nccc(C)n5)c(F)c4)c4c(N)ncnc4n3C)n2C)n1` [Example 1461], the figures for the 50% inhibitory concentration (IC50) in the test on SNU-16 (setting [1]) and against FGFR2 were 100 to 250 nM and 250 to 1000 nM, respectively.

Turning to `C#Cc1ncc(-c2c(-c3ccc(Oc4nccc(C)n4)cc3)c3c(N)ncnc3n2C)cc1F` [Example 1081], the IC50 in the test with SNU-16 (setting [1]) and against FGFR2 was 250 to 1000 nM throughout.

For `C=C(C)C(=O)Nc1ccc(-c2c(-c3cnn(-c4cccc(C(F)(F)F)c4)c3)c3c(N)ncnc3n2C)cc1` [Example 1291], the IC50 in the test with SNU-16 (setting [1]) and on FGFR2 was 1000 to 100000 nM in each case.

Take `C#Cc1cc(C)c(-c2c(-c3ccc(Oc4nccc(C)n4)c(F)c3)c3c(N)ncnc3n2C)cn1` [Example 1439]: the IC50 is at most 100 nM in the test on SNU-16 (SNU-16 cells) and under 100 nM on FGFR2.

For the compound `C=C1C(=O)N(c2ccc(-c3c(-c4ccc(Oc5nccc(C)n5)cc4)c4c(N)ncnc4n3C)cc2)C[C@H]1C` [Example 1135], the IC50 in the test on SNU-16 (setting [1]) is 100 to 250 nM; on FGFR2 it was 250 to 1000 nM.

With `C=C(C)C(=O)Nc1ccc(-c2c(C3=CC[C@H](C(=O)N4CC5CC4C5)CC3)c3c(N)ncnc3n2C)cc1` [Example 997], the results for the IC50 in the test with SNU-16 (setting [1]) and against FGFR2 were 250 to 1000 nM and 1000 to 100000 nM, respectively.

As to `C=C(C)C(=O)Nc1ccc(-c2c(-c3cnn(C4CCCC4)c3)c3c(N)ncnc3n2C)cc1` [Example 1275], the half-maximal inhibitory concentration (IC50) with SNU-16 (setting [1]) and on FGFR2 was 250 to 1000 nM in each case.

With `C=C(C)C(=O)Nc1ccc(-c2c(C3=CCN(C(=O)N4CCCC4)CC3)c3c(N)ncnc3n2C)cc1` [Example 923], the concentration for half-maximal inhibition (IC50) in the test on SNU-16 (setting [1]) is 250 to 1000 nM; on FGFR2 it was 1000 to 100000 nM.

Take `C=CC(=O)N[C@@H]1CCN(c2cccc(-c3c(-c4ccc(Oc5cccc(C)n5)cc4)c4c(N)ncnc4n3C)c2)C1` (single isomer, unassigned) [Example 1032]: the IC50 is at most 100 nM with SNU-16 (setting [1]) and 250 to 1000 nM at FGFR2.

As for `C=CC(=O)N[C@H]1C[C@H]1c1c(-c2ccc(C(=O)N3CCCC3)cc2)c2c(N)ncnc2n1C` (single isomer, unassigned) [Example 975], the IC50 in the test on SNU-16 (setting [1]) and against FGFR2 was 1000 to 100000 nM throughout.

Consider `C#Cc1ccc2ccc(-c3c(-c4ccc(Oc5nccc(C)n5)c(F)c4)c4c(N)ncnc4n3C)cc2n1` [Example 1412], for which the IC50 in the test with SNU-16 (setting [1]) and at FGFR2 was 250 to 1000 nM throughout.

For `C=C1CCN(c2ccc(-c3c(C4=CC[C@@H](C(=O)N5CCCC5)CC4)c4c(C)ncnc4n3C)c(Cl)c2)C1=O` (single isomer, unassigned) [Example 1140], the half-maximal inhibitory concentration (IC50) is at most 100 nM in the test with SNU-16 (setting [1]) and under 100 nM at FGFR2.

As for `C=C(C)C(=O)Nc1ccc(-c2c(-c3ccc(-c4cc(=O)[nH][nH]4)cc3)c3c(N)ncnc3n2C)cc1` [Example 1300], the IC50 in the test with SNU-16 (setting [1]) and at FGFR2 was 1000 to 100000 nM in each case.

With `C=CC(=O)N1CCC(N)(c2c(-c3ccc(Oc4cccc(C)n4)cc3)c3c(N)ncnc3n2C)C1` (stereo not shown) [Example 850], the half-inhibitory concentration (IC50) in the test on SNU-16 (setting [1]) and on FGFR2 was 1000 to 100000 nM each time.

Consider `C=C(C)C(=O)Nc1ccc(-c2c(C3=CC[C@@H](C(=O)N4CCCC45COC5)CC3)c3c(N)ncnc3n2C)cc1` (single isomer, unassigned) [Example 914], for which the 50% inhibitory concentration (IC50) in the test with SNU-16 (setting [1]) is at most 100 nM; on FGFR2, under 100 nM.

Consider `C#Cc1cc(C)c(-c2c(-c3ccc(C(=O)N4CCC[C@@H]4C#C)cc3)c3c(N)ncnc3n2C)cn1` [Example 1187], for which the half-maximal inhibitory concentration (IC50) in the test with SNU-16 (setting [1]) is at most 100 nM; on FGFR2 it was under 100 nM.

Consider `C#Cc1cc(C)c(-c2c(C3=CC[C@@H](C(=O)N4CCC[C@H]4C#N)CC3)c3c(C)ncnc3n2C)c(C)n1` (atropisomer, axis not shown) [Example 1464], for which the half-maximal inhibitory concentration (IC50) in the test on SNU-16 (SNU-16 cells) and at FGFR2 was 250 to 1000 nM each time.

Turning to `C#Cc1ncc2ccc(-c3c(-c4ccc(Oc5nccc(C)n5)c(F)c4)c4c(N)ncnc4n3C)cc2n1` [Example 1379], the results for the IC50 with SNU-16 (setting [1]) and against FGFR2 were at most 100 nM and 100 to 250 nM, respectively.

`C=C(C)C(=O)N1CC=C(c2c(-c3ccc(Oc4cccc(C)n4)cc3)c3c(N)ncnc3n2C)[C@H]1C` (single isomer, unassigned) [Example 930]: the IC50 in the test with SNU-16 (setting [1]) was 100 to 250 nM; at FGFR2 it was 250 to 1000 nM.

For `C=Cc1ncc(-c2ccc(-c3c(-c4ccc(Oc5nccc(C)n5)cc4)c4c(N)ncnc4n3C)cc2)o1` [Example 947], the IC50 is at most 100 nM with SNU-16 (setting [1]) and under 100 nM against FGFR2.

Consider `C=C1CCc2cc(-c3c(-c4ccc(Oc5nccc(C)n5)cc4)c4c(N)ncnc4n3C)ccc2C1=O` [Example 1311], for which the results for the IC50 in the test on SNU-16 (setting [1]) and against FGFR2 were 250 to 1000 nM and under 100 nM, respectively.

On to `C=C(C)C(=O)Nc1ccc(-c2c(-c3cnc4ccccc4c3)c3c(N)ncnc3n2C)cc1` [Example 1284], for which the half-maximal inhibitory concentration (IC50) in the test with SNU-16 (setting [1]) and at FGFR2 was 1000 to 100000 nM each time.

With `C#Cc1cc2c(cn1)-c1c(-c3ccc(Oc4nccc(C)n4)c(F)c3)c3c(C)ncnc3n1CCC2` [Example 1445], the 50% inhibitory concentration (IC50) with SNU-16 (setting [1]) is at most 100 nM; against FGFR2, under 100 nM.

For `C#Cc1ncc(-c2c(C3=CC[C@@H](C(=O)N4CCCC4)CC3)c3c(N)ncnc3n2C)c(C)n1` [Example 1180], the concentration for half-maximal inhibition (IC50) is at most 100 nM with SNU-16 (setting [1]) and under 100 nM against FGFR2.

For the compound `C#Cc1cc(C)c(-c2c(-c3ccc(C(=O)NC4CCC4)c(OC)c3)c3c(N)ncnc3n2C)cn1` [Example 1143], the half-maximal inhibitory concentration (IC50) with SNU-16 (setting [1]) was in the range of 250 to 1000 nM; against FGFR2, 1000 to 100000 nM.

Take `C=C(C)C(=O)Nc1ccc(-c2c(C3=CCC(C(=O)N4CCCC4)CC3(F)F)c3c(N)ncnc3n2C)cc1` (stereo not shown) [Example 969]: the IC50 in the test on SNU-16 (setting [1]) was at most 100 nM; against FGFR2, under 100 nM.

Consider `Cn1c(-c2ccc(NC(=O)CCl)cc2)c(C2=CC[C@@H](C(=O)N3CCCC3)CC2)c2c(N)ncnc21` (single isomer, unassigned) [Example 906], for which the 50% inhibitory concentration (IC50) was at most 100 nM with SNU-16 (setting [1]) and under 100 nM on FGFR2.
